This test has as its target T1, hGHR (Homo sapiens, UniProt P10912).
T1 construct: previously reported to express high levels of endogenous hGHR; host or cells: SK-MEL-28, MALME-3M, IM9
T1 sequence (P10912 19-638): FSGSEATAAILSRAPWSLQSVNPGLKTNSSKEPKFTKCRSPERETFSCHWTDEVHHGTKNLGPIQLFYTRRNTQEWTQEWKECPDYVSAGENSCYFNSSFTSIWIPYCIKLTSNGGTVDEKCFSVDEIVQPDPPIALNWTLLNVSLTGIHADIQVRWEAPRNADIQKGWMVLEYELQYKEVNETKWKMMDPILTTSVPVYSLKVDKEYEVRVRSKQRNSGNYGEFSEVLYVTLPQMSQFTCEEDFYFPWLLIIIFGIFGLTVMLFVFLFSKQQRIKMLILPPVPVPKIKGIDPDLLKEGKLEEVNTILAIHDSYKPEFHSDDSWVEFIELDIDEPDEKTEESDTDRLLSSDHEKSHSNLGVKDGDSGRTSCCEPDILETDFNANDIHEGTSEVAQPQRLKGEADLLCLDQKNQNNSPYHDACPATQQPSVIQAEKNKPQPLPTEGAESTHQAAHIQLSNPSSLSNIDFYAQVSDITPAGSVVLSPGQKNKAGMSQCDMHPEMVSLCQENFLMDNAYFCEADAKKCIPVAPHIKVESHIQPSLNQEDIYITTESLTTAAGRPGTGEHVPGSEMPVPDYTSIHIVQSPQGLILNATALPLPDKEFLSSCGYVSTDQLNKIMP
The test can be described thus: hGH-mediated pSTAT5 in SK-MEL-28 cells, Western blot. Format: cell-based. The conditions noted are these: 20 min, Western blot densitometry, n = 3. How it is done: SK-MEL-28, MALME-3M, and T84 cells were grown and maintained in Eagle's Minimal Essential Medium. IM9 and L cells were grown in RPMI-1640 media and Dulbecco's modified Eagle's medium, respectively. All growth media was supplemented with 10% fetal bovine serum and 1× antibiotic-antimycotic […] solution. Cells were grown at 37 °C under a 5% CO2 atmosphere in a humidified incubator, and growth media was replaced every 48 h during incubation. No hGH was present in or added to the growth media unless specifically indicated. […]
Following treatment, the cells were harvested at the indicated time points, and the total protein was extracted. […] Sample protein concentration was quantified using a Bradford assay with bovine serum albumin as the protein standard. Absorbance at 595 nm was measured using a Spectramax 250 multimode plate reader (Molecular Devices) and processed using SoftmaxPro v4.7.1 software.
Cytosolic fractions from treated cells were thawed on ice, and 80 μg protein was loaded onto polyacrylamide gels for separation by SDS-PAGE. […] Chemiluminescence signals were detected using a GelDoc (BioRad) fluorescence imager. […] Percent inhibition was then measured by subtracting the pSTAT5 band intensity in each lane from the pSTAT5 band intensity of hGH-treated samples. […]
(In general: In western blotting, separated proteins are transferred to a membrane and probed.)

For `CC[C@H](C)[C@H](NC(=O)[C@H](Cc1ccc(O)cc1)NC(C)=O)C(=O)N1CCC[C@H]1C(=O)N[C@@H](CCCCN)C(=O)N[C@@H](CCC(=O)O)C(=O)N[C@@H](CCC(N)=O)C(=O)N[C@@H](CCCCN)C(=O)N[C@@H](Cc1ccc(O)cc1)C(=O)N[C@@H](CO)C(=O)N[C@@H](Cc1ccccc1)C(=O)N[C@@H](CC(C)C)C(=O)N[C@@H](CCC(N)=O)C(=O)N[C@@H](CC(N)=O)C(=O)N1CCC[C@H]1C(=O)N[C@@H](CCC(N)=O)C(=O)N[C@H](C(N)=O)[C@@H](C)O` [S1H], the “suppression of hGH-mediated pSTAT5” value is, setting by setting: (100 nM S1H with 2.5 nM hGH) 46%; (200 nM S1H with 2.5 nM hGH) 67%.

The record behind these values is publication PMC8086144, “A novel peptide antagonist of the human growth hormone receptor” (The Journal of Biological Chemistry, 2021).
